The record followed here is publication PMC10267539 (EJNMMI Radiopharmacy and Chemistry, 2023).

Usually IC50 stands for the concentration at which inhibition is half-maximal. Read a low IC50 as greater potency.

For series [1] the following is noted: based on toxicity study in Wistar rats.
Method: For DOTA-MGS5, a toxicity study in Wistar rats was carried out in a GLP-compliant laboratory.
Series [2] is described as follows: In vitro stability in PBS and serum. To be noted: 37 °C, after 5 h, starting radiochemical purity 94.3%. Format: in vitro ADME.
Method: (§1) The in vitro stability of the corresponding radiocomplexes was determined in PBS and human serum at 37 °C. […] Cell viability (10^4 cells/well) and clonogenic assay (10^3 cells/well) was performed with [^213Bi]Bi-3p-C-NETA-TATE using the same cell line.
For series [3], the system named is SSTR2 expressing cells (BON-1.SSTR2). The series can be described thus: Cell binding and internalization. The series is classed as cell-based. The settings on record: BON-1.SSTR2, 60 min incubation.
Method: as §1
A further series has as its system BON-1.SSTR2. The series can be described thus: Clonogenic assay. Format: cell-based.
The target of series [4] is CXCR4 (UniProt P61073). The series can be described thus: competitive binding assay on cells with a fluorescent ligand.
Series [5] has as its target CXCR4 (UniProt P61073). The series can be described thus: radioligand binding.
The target of series [6] is glucagon-like peptide-1 (GLP-1) receptor (UniProt P43220). The series can be described thus: competitive binding assay on cells.
The conditions of series [7]: 37 °C, after 6 h.
Method: (§2) The stability of the radiolabeled peptide in human plasma and normal saline as well as partition coefficient (LogP) was determined. The effect of the peptide on platelet aggregation and the percent of binding radiopeptide to fibrin were studied.
The target of a further series is fibrin (UniProt P02679). The series can be described thus: binding of the radiolabelled pept.
The next series has as its system plaque inflammation. The series can be described thus: F-18 FDG PET of plaque inflammation (carotid TBR). The series is classed as in vivo, human. As for the experimental part:
Materials and methods: We retrospectively analyzed F-18 FDG PET scans of patients treated with I-131 rituximab for the first time for relapsed or refractory CD20(+) B cell lymphoma. F-18 FDG PET scans were performed before (PET1), 5 days (PET2), and 1 m (PET3) after the administration of I-131 rituximab. […] TBRs measured in PET1, PET2, and PET3 were designated as TBR1, TBR2, and TBR3, respectively. Statistical analysis was performed using the Wilcoxon-test for comparison between the groups. In addition, we divided patients into 2 groups (patients with higher TBR1 versus equal to or lower TBR1 than the median value of TBR1) and compared TBRs on each PET dataset.

In a further series the target is T1, HER2 (Homo sapiens, UniProt P04626).
T1 construct: flow cytometry in BT-474 (high HER2 density) and MCF-7 (low HER2 density); endogenous in cells; host or cells: BT-474 and MCF-7 cells
The series can be described thus: Binding by flow cytometry. To be noted: BT-474 / MCF-7, cell line not stated.

Series [8] concerns the target human cholecystokinin-2 receptor (CCK2R) (human) (UniProt P32239). The series can be described thus: radioligand binding.
Series [9] has as its target rat cholecystokinin-2 receptor (CCK2R) (rat) (UniProt P30553). The series can be described thus: radioligand binding.

CXCR4, sequence (P61073 whole entry): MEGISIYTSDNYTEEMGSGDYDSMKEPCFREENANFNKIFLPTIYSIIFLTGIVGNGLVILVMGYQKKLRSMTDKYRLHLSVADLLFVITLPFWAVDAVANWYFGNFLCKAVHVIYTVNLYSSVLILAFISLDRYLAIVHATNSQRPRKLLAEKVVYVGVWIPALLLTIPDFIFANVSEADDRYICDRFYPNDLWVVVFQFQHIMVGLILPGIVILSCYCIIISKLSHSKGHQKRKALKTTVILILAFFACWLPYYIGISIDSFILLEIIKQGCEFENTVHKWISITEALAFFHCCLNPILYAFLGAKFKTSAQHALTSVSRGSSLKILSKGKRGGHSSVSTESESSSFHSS
glucagon-like peptide-1 (GLP-1) receptor, sequence (P43220 24-463): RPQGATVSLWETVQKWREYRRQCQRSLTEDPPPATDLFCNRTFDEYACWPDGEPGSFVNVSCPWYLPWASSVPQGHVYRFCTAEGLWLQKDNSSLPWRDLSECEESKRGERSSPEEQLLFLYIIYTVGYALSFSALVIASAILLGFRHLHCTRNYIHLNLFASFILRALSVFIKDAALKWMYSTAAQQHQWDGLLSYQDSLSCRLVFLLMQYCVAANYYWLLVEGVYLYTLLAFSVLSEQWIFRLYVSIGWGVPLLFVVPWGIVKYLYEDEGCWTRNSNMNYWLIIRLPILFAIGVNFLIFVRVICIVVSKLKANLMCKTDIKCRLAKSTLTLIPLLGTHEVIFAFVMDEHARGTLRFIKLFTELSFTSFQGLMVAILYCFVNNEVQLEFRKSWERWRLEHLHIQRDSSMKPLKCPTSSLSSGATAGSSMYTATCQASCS
rat cholecystokinin-2 receptor (CCK2R) (rat), sequence (P30553 whole entry): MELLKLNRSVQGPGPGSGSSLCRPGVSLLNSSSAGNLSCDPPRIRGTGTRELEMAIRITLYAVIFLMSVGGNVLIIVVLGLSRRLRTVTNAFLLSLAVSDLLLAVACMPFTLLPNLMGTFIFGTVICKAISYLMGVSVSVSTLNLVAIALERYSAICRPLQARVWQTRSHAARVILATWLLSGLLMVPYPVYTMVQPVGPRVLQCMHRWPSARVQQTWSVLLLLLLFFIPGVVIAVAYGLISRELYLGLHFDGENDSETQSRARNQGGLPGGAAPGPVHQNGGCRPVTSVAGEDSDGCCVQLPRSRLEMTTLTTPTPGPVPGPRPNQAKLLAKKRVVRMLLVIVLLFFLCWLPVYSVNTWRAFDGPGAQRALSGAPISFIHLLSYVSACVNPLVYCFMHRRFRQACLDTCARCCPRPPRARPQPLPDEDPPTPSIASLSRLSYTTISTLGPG
fibrin, sequence (P02679 whole entry, looked up): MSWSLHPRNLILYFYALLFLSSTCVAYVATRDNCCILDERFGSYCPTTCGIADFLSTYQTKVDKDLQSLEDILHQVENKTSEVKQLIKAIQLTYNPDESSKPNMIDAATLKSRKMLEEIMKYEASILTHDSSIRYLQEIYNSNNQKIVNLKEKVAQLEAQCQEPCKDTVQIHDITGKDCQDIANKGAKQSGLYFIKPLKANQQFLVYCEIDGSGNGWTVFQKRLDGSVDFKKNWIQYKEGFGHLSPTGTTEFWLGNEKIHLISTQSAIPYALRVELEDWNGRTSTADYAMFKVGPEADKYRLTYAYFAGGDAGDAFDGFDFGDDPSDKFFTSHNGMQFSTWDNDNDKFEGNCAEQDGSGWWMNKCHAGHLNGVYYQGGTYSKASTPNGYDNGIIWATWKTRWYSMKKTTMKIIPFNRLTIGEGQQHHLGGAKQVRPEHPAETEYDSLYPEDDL
human cholecystokinin-2 receptor (CCK2R) (human), sequence (P32239 whole entry): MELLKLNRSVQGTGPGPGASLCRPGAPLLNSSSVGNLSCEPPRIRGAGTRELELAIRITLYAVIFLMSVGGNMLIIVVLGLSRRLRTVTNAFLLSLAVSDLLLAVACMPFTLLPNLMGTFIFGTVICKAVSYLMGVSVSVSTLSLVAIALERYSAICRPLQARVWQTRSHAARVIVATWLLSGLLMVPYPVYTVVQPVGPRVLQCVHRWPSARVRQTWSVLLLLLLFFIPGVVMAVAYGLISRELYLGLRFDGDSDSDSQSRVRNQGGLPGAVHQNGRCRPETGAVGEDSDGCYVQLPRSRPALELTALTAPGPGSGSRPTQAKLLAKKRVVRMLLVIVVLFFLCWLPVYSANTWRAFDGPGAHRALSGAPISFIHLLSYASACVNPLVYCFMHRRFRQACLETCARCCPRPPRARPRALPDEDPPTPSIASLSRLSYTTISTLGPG
Method for HER2: Binding characteristics were determined using flow cytometry in BT-474 (high HER2 density) and MCF-7 (low HER2 density).
Method for platelet aggregation: as §2

Turning to `CCCC[C@@H](C(=O)N[C@@H](CC(=O)O)C(=O)N[C@@H](Cc1cccc2ccccc12)C(N)=O)N(C)C(=O)[C@H](Cc1c[nH]c2ccccc12)NC(=O)CNC(=O)[C@H](Cc1ccc(O)cc1)NC(=O)[C@H](C)NC(=O)[C@@H](CCC(=O)O)NC(=O)CN1CCN(CC(=O)O)CCN(CC(=O)O)CCN(CC(=O)O)CC1` [DOTA-MGS5], in series [1], the “maximum dose defined for the first therapeutic use” value came out at 100 µg.
`C[C@@H](O)[C@H](NC(=O)[C@@H]1CSSC[C@H](NC(=O)[C@@H](Cc2ccccc2)NC(=S)Nc2ccc(CCCC(CN3CCN(CC(=O)O)CCN(CC(=O)O)CC3)N(CC(=O)O)CC(=O)O)cc2)C(=O)N[C@@H](Cc2ccc(O)cc2)C(=O)N[C@H](Cc2c[nH]c3ccccc23)C(=O)N[C@@H](CCCCN)C(=O)N[C@@H]([C@@H](C)O)C(=O)N1)C(=O)O` (stereo partly shown) [[^213Bi]Bi-3p-C-NETA-TATE, metal not drawn] returned an intact radiocomplex in [2] (PBS) of 90%. Further, the remaining at 5 h in [2] (human serum, read-out: intact radiocomplex) was found to be 90%. Moreover, in [3], the cell binding worked out at 3.3 ± 0.5% and the “internalized share of cell binding” value amounted to 39.2%. Besides, the “activity required for cell surviving fraction of 0.1 (SF0.1)” value with BON-1.SSTR2 amounted to 0.1 MBq.
The molecule AlF-NOTA-(2×)DV1(c11sc12s) (peptide) yielded an IC50 in the series with CXCR4 [4] of 1.3 nM.
AlF-NOTA-DV1-k-(DV3) (peptide): the total-bound fraction (u87.CXCR4 cells) with CXCR4 [5] stood at 6%. In the series with CXCR4 [4], this molecule had an IC50 of 5.3 nM.
Molecule “DOTA-MI-exendin-4 (from UniProt P26349 48-87) (peptide)” returned an affinity in series [6] of less than 11 nM.
Still for that read-out and setting: the value for “DOTA-exendin-4 (from UniProt P26349 48-87) (peptide; other documents disagree on this pair)” was less than 11 nM.
Regarding “HYNIC-Gly-Pro-Lys-Gly-Ala-Ala-Asp [HYNIC-GPLGAAD]”, the “stability in human plasma” value in series [7] was 95%. The “effect on platelet aggregation” value in the series with platelet aggregation is “no effect on platelet aggregation”.
With “HYNIC-Gly-Pro-Lys-Gly-Ala-Ala-Asp peptide”, the other with fibrin is 71.4%.
For the molecule “I-131 rituximab: radioimmunotherapy for CD20(+) B cell lymphoma”, the TBR1 in the series with plaque inflammation (all 32 patients, PET1 before I-131 rituximab, mean and SD) is 1.49 ± 0.28. Further, the TBR2 with plaque inflammation (all 32 patients, PET2 5 days after, mean and SD, P = 0.008 vs TBR1) was found to be 1.36 ± 0.21. In the series on plaque inflammation (all 32 patients, PET3 1 m after, mean and SD, P = 0.002 vs TBR1), this molecule registered a TBR3 of 1.35 ± 0.19. Also, the “mean TBR” value was 1.69 in the series on plaque inflammation (patients with higher TBR1 (n = 16), PET1); 1.46 in the series on plaque inflammation (patients with higher TBR1 (n = 16), PET2, P = 0.001); 1.42 with plaque inflammation (patients with higher TBR1 (n = 16), PET3, P < 0.001); 1.29 with plaque inflammation (patients with lower TBR1 (n = 16), PET1); 1.26 in the series on plaque inflammation (patients with lower TBR1 (n = 16), PET2); 1.29 in the series with plaque inflammation (patients with lower TBR1 (n = 16), PET3).
“NOTA-MI-exendin-4 (from UniProt P26349 48-87) (peptide)” had an affinity in [6] of less than 11 nM.
Still for that read-out and setting: the value for “NOTA-exendin-4 (from UniProt P26349 48-87) (peptide; other documents disagree on this pair)” was less than 11 nM.
In the case of NOTA-rituximab: control IgG, the KD entry with HER2 was “no binding”.
Turning to [^177Lu]Lu-DOTA-MGS5 (peptide), the other in [8] is 68%; in series [9], 48.6%.
